Source: patent US7759366B2 (Sanofi-Aventis, priority 2006, dated 2010)
Where two headings read alike, the source gives them in different places.

Molecular target: hCB1R (Homo sapiens, UniProt P21554)
Assay: Binding to the CB1 receptor ([3H]-SR141716A displacement)
Experimental: Binding to the CB1 Receptor:
Test compounds: The compounds (3 μl, 10 mM, 100% DMSO), pipetted into 96-well PP microtiter plates, were diluted with 27 μl of 100% DMSO (dimethyl sulfoxide). Proceeding from this solution, further 3-fold dilution steps were undertaken by transferring 10 μl in each case to a new PP microtiter plate and adding a further 20 μl of 100% DMSO. In each case 6 μl of these solutions were transferred into new 96-well PP microtiter plates and made up with 144 μl of assay buffer. The end concentrations ranged from 10 μM to 0.005 μM. Negative control: AM 251, dissolved in assay buffer with 1% DMSO, was added to the dilution series in the microtiter plates as a control. The end concentration was 1 μM. Blank control: assay buffer with 1% DMSO was added to the dilution series of the microtiter plates as a blank control.
Summary of the Assay Parameters:
High control: ^3H binding without addition of the compound
Low control: ^3H binding in the presence of 1 μM AM 251
The values were calculated using the corrected raw data.
The values reported were obtained as average values of a double determination. The IC50 values were calculated from the measurements with the program Xlfit, formula 205. Ki values were obtained from the IC50 and Kd values utilizing the Cheng-Prusoff equation: […]
Literature: Cheng, Y.-C., and Prusoff, W. H. (1973) Biochem. Pharmacol 22, 3099-3108

[1] = CHO-K1/cannabinoid CB1 protein 2 μg/well, [3H]-SR141716A 0.5 nM, Ki from IC50 by Cheng-Prusoff, average of double determination, read-out: hCB1R, binding Ki

hCB1R, sequence (P21554 whole entry): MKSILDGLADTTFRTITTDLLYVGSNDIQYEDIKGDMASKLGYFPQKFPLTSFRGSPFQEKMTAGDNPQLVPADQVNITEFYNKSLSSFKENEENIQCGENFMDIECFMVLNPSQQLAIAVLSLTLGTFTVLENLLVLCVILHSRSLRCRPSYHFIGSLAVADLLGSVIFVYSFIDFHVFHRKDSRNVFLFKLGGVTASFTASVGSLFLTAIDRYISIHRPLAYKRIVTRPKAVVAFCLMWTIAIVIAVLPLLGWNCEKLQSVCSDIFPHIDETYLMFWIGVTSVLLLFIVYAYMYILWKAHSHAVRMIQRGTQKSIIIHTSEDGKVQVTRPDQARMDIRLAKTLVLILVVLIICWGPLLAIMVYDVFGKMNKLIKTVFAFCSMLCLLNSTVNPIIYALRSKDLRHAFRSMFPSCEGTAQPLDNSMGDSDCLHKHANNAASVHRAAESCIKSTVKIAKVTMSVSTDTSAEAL

Row | Ki [1] [nM] | Structure (SMILES) | Ki [nM]
1 | – | COc1ccc(Nc2ccc(Cl)cc2)c(CN2C(=O)N(c3ccc(C#N)c(C(F)(F)F)c3)C(=O)C2(C)C)c1 [Example 9, 4-{3-[2-(4-chlorophenylamino)-5-methoxybenzyl]-4,4-dimethyl-2,5-dioxoimidazolidin-1-yl}-2-trifluoromethylbenzonitrile] | 13
2 | – | COc1ccc(Nc2ccc(C#N)c(C(F)(F)F)c2)c(CN2C(=O)N(c3ccc(C#N)c(C(F)(F)F)c3)C(=O)C2(C)C)c1 [Example 10, 4-{3-[2-(4-cyano-3-trifluoromethylphenylamino)-5-methoxybenzyl]-4,4-dimethyl-2,5-dioxoimidazolidin-1-yl}-2-trifluoromethylbenzonitrile] | 24
3 | – | CC1(C)C(=O)N(c2ccc(C#N)c(C(F)(F)F)c2)C(=O)N1Cc1ccccc1Nc1ccc(OC(F)(F)F)cc1 [Example 12, 4-{3-[2-(4-trifluoromethoxy-phenylamino)benzyl]-4,4-dimethyl-2,5-dioxoimidazolidin-1-yl}-2-trifluoromethylbenzonitrile] | 0.9
4 | – | CC1(C)C(=O)N(c2ccc(C#N)c(C(F)(F)F)c2)C(=O)N1Cc1ccccc1Nc1ccc(Cl)cc1Cl [Example 13, 4-{3-[2-(2,4-dichlorophenylamino)benzyl]-4,4-dimethyl-2,5-dioxoimidazolidin-1-yl}-2-trifluoromethylbenzonitrile] | 0.9
5 | – | CC1(C)C(=O)N(c2ccc(C#N)c(C(F)(F)F)c2)C(=O)N1Cc1cc(F)ccc1Nc1ccc(F)cc1 [Example 15, 4-{3-[5-Fluoro-2-(4-fluorophenylamino)benzyl]-4,4-dimethyl-2,5-dioxoimidazolidin-1-yl}-2-trifluoromethylbenzonitrile] | 2
6 | – | CC1(C)C(=O)N(c2ccc(C#N)c(C(F)(F)F)c2)C(=O)N1Cc1cc(F)ccc1Nc1ccc(Cl)cc1 [Example 16, 4-{3-[2-(4-chlorophenylamino)-5-fluorobenzyl]-4,4-dimethyl-2,5-dioxoimidazolidin-1-yl}-2-trifluoromethylbenzonitrile] | 2
7 | – | CC1(C)C(=O)N(c2ccc(C#N)c(C(F)(F)F)c2)C(=O)N1Cc1cc(C(F)(F)F)ccc1Nc1ccc(F)cc1 [Example 17, 4-{3-[2-(4-Fluorophenylamino)-5-trifluoromethylbenzyl]-4,4-dimethyl-2,5-dioxoimidazolidin-1-yl}-2-trifluoromethylbenzonitrile] | 3
8 | – | CC1(C)C(=O)N(c2ccc(C#N)c(C(F)(F)F)c2)C(=O)N1Cc1cc(F)ccc1Nc1ccccc1 [Example 18, 4-[3-(5-fluoro-2-phenylaminobenzyl)-4,4-dimethyl-2,5-dioxoimidazolidin-1-yl]-2-trifluoromethylbenzonitrile] | 5
9 | – | CC1(C)C(=O)N(c2ccc(C#N)c(C(F)(F)F)c2)C(=O)N1Cc1cc(C(F)(F)F)ccc1Nc1ccc(Cl)cc1 [Example 19, 4-{3-[2-(4-chlorophenylamino)-5-trifluoromethylbenzyl]-4,4-dimethyl-2,5-dioxoimidazolidin-1-yl}-2-trifluoromethylbenzonitrile] | 5
10 | – | CC1(C)C(=O)N(c2ccc(F)c(C(F)(F)F)c2)C(=O)N1Cc1ccccc1Nc1ccccc1 [Example 23, 3-(4-Fluoro-3-trifluoromethylphenyl)-5,5-dimethyl-1-(2-phenylaminobenzyl)imidazolidin-2,4-dione] | 10
11 | 11 | CC1(C)C(=O)N(c2ccc(F)c(C(F)(F)F)c2)C(=O)N1Cc1ccccc1Nc1ccc(F)cc1 [Example 24, 1-[2-(4-fluorophenylamino)benzyl]-3-(4-fluoro-3-trifluoromethylphenyl)-5,5-dimethylimidazolidine-2,4-dione] | –
12 | 6 | CC1(C)C(=O)N(c2ccc(F)c(C(F)(F)F)c2)C(=O)N1Cc1ccccc1Nc1ccc(Cl)cc1 [Example 25, 1-[2-(4-chlorophenylamino)benzyl]-3-(4-fluoro-3-trifluoromethylphenyl)-5,5-dimethylimidazolidine-2,4-dione] | –
13 | – | CC1(C)C(=O)N(c2ccc(C#N)c(C(F)(F)F)c2)C(=O)N1Cc1ccccc1Nc1ccc(S(F)(F)(F)(F)F)cc1 [Example 26, 4-{3-[2-(4-pentafluorosulfanylphenylamino)benzyl]-4,4-dimethyl-2,5-dioxoimidazolidin-1-yl}-2-trifluoromethylbenzonitrile] | 39
14 | – | CC1(C)C(=O)N(c2ccc(C#N)c(C(F)(F)F)c2)C(=O)N1Cc1ccccc1Nc1ccc(S(C)(=O)=O)cc1 [Example 27, 4-{3-[2-(4-methylsulfonylphenylamino)benzyl]-4,4-dimethyl-2,5-dioxoimidazolidin-1-yl}-2-trifluoromethylbenzonitrile] | 17
15 | – | N#Cc1ccc(N2C(=O)N(Cc3ccccc3Nc3ccccc3)C3(CCCCC3)C2=O)cc1C(F)(F)F [Example 28, 4-[2,4-Dioxo-1-(2-phenylaminobenzyl)-1,3-diazaspiro[4.5]dec-3-yl]-2-trifluoromethylbenzonitrile] | 87
16 | – | CC1(C)C(=O)N(c2ccc(C#N)c(C(F)(F)F)c2)C(=O)N1Cc1ccccc1Nc1ccc2c(c1)OC(F)(F)O2 [Example 32, 4-{3-[2-(2,2-difluorobenzo[1,3]dioxol-5-ylamino)benzyl]-4,4-dimethyl-2,5-dioxoimidazolidin-1-yl}-2-trifluoromethylbenzonitrile] | 3
17 | – | CC1(C)C(=O)N(c2ccc(C#N)c(C(F)(F)F)c2)C(=O)N1Cc1ccccc1Nc1cccc(C(F)(F)F)c1 [Example 34, 4-{3-[2-(3-trifluoromethylphenylamino)benzyl]-4,4-dimethyl-2,5-dioxoimidazolidin-1-yl}-2-trifluoromethylbenzonitrile] | 14
18 | 11 | CC1(C)C(=O)N(c2ccc(Oc3ccc(Cl)cc3)c(C(F)(F)F)c2)C(=O)N1Cc1ccccc1Nc1ccc(F)cc1F [Example 50, 3-[4-(4-Chlorophenoxy)-3-trifluoromethylphenyl]-1-[2-(2,4-difluorophenylamino)benzyl]-5,5-dimethylimidazolidine-2,4-dione] | –
19 | – | CC1(C)C(=O)N(c2ccc(C#N)c(S(F)(F)(F)(F)F)c2)C(=O)N1Cc1ccccc1Nc1ccc(F)cc1F [Example 51, 4-{3-[2-(2,4-Difluorophenylamino)benzyl]-4,4-dimethyl-2,5-dioxoimidazolidin-1-yl}-2-pentafluorosulfanylbenzonitrile] | 2
20 | – | CC1(C)C(=O)N(c2ccc(F)c(C(F)(F)F)c2)C(=O)N1Cc1ccccc1Nc1ccc(F)cc1F [Example 52, 1-[2-(2,4-difluorophenylamino)benzyl]-3-(4-fluoro-3-trifluoromethylphenyl)-5,5-dimethylimidazolidine-2,4-dione] | 3
21 | – | CC1(C)C(=O)N(c2ccc(C#N)c(C(F)(F)F)c2)C(=O)N1Cc1ccccc1Nc1ccc(F)cc1C#N [Example 53, 4-{3-[2-(2-cyano-4-fluorophenylamino)benzyl]-4,4-dimethyl-2,5-dioxoimidazolidin-1-yl}-2-trifluoromethylbenzonitrile] | 2
22 | – | CC1(C)C(=O)N(c2ccc(C#N)c(C(F)(F)F)c2)C(=O)N1Cc1ccccc1Nc1ccncc1 [Example 61, 4-{4,4-Dimethyl-2,5-dioxo-3-[2-(pyridin-4-ylamino)benzyl]imidazolidin-1-yl}-2-trifluoromethylbenzonitrile] | 19
23 | – | CC1(C)C(=O)N(c2ccc(C#N)c(C(F)(F)F)c2)C(=O)N1Cc1ccccc1Nc1ccc(C(=O)O)cc1 [Example 62] | 16
24 | – | CC(C)(C)c1cc(N2C(=O)N(Cc3ccccc3Nc3ccccc3)C(C)(C)C2=O)ccc1C#N [Example 63, 2-tert-Butyl-4-[4,4-dimethyl-2,5-dioxo-3-(2-phenylaminobenzyl)imidazolidin-1-yl]benzonitrile] | 9
25 | 113 | CC1(C)C(=O)N(c2ccc(C#N)nc2)C(=O)N1Cc1ccccc1Nc1ccccc1 [Example 69] | –
26 | 27 | CC1(C)C(=O)N(c2ccc(C#N)nc2)C(=O)N1Cc1ccccc1Nc1ccc(F)cc1F [Example 70, 5-{3-[2-(2,4-difluorophenylamino)benzyl]-4,4-dimethyl-2,5-dioxoimidazolidin-1-yl}pyridine-2-carbonitrile] | –
27 | – | COC(=O)c1ccc(Nc2cc(OC)ccc2CN2C(=O)N(c3ccc(C#N)c(C(F)(F)F)c3)C(=O)C2(C)C)cc1 [Example 110, Methyl 4-{2-[3-(4-cyano-3-trifluoromethylphenyl)-5,5-dimethyl-2,4-dioxoimidazolidin-1-ylmethyl]-5-methoxyphenylamino}benzoate] | 5
28 | – | COC(=O)c1ccc(Nc2cc(F)ccc2CN2C(=O)N(c3ccc(C#N)c(C(F)(F)F)c3)C(=O)C2(C)C)cc1 [Example 111, Methyl 4-{2-[3-(4-cyano-3-trifluoromethylphenyl)-5,5-dimethyl-2,4-dioxoimidazolidin-1-ylmethyl]-5-fluorophenylamino}benzoate] | 1

Row | Structure (SMILES) | Ki [1] [nM] | Ki [nM]
29 | CC1(C)C(=O)N(c2ccc(C#N)c(C(F)(F)F)c2)C(=O)N1Cc1cccc(Nc2ccccc2)c1 [Example 29, 4-[4,4-Dimethyl-2,5-dioxo-3-(3-phenylaminobenzyl)imidazolidin-1-yl]-2-trifluoromethylbenzonitrile] | 107 | –
